Source: US11833160B2, “Ursodeoxycholic acid derivatives as HDAC inhibitors for the treatment of polycystic diseases” (UNIVERSIDAD DEL PAIS VASCO/EUSKAL HERRIKO UNIBERTSITATEA, priority 2017, dated 2023)

Columns and labels:
human HDAC6 = molecular target: T1, human HDAC6 (Homo sapiens, UniProt Q9UBN7); test: HDAC6 enzymatic activity assay (fluorogenic peptide); type: biochemical; conditions: for IC50: 10-dose, 3-fold serial dilution, triplicate
T1 construct: GST (N); purchased BioMol SE-508; host or cells: baculovirus / Sf9 cells
T1 sequence (Q9UBN7 1-1215): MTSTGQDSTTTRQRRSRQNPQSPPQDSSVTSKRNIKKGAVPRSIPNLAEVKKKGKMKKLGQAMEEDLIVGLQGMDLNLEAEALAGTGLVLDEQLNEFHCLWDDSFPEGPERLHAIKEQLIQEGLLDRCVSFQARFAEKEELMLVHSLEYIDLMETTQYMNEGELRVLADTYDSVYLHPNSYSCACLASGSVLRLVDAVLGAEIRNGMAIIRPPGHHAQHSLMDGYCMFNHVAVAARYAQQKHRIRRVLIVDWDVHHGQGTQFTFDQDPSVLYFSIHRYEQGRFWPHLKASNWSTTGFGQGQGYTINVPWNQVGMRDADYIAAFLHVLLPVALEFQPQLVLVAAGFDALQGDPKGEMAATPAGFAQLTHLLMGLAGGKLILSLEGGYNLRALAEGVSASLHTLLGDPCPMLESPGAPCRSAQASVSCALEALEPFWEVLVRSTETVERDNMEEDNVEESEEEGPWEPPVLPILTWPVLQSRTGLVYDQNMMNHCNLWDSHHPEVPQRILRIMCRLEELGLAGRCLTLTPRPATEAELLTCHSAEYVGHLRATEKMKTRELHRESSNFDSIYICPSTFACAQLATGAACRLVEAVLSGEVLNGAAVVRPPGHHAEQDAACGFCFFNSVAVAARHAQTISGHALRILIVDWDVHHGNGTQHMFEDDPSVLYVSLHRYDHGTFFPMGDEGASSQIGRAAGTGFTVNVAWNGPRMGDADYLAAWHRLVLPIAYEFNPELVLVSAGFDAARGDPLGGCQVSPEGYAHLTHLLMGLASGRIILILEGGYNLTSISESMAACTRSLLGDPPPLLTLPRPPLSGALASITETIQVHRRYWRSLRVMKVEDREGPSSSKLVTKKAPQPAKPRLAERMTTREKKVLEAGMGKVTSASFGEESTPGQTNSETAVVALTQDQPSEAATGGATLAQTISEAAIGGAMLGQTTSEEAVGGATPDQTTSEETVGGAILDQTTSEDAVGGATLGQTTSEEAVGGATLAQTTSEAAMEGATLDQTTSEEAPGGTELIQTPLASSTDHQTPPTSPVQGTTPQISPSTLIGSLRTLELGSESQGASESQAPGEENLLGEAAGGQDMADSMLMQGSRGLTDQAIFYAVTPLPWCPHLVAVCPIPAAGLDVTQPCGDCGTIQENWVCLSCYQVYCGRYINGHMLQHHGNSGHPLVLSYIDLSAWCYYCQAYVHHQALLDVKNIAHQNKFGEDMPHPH
Method: (§1) Peptide substrates: all HDAC assays were performed using acetylated peptide substrates labeled with 7-amino-4-methylcoumarin (AMC): • Substrate for isoforms HDAC1, 2, 3, 6, 10, 11, and HeLa nuclear extract assays: acetylated fluorogenic peptide from p53 residues 379-382 (RHKKAc). • Substrate for isoforms HDAC4, 5, 7, 9: fluorogenic Boc-L-Lys (s-trifluoroacetyl)-AMC. • Substrate for HDAC8 assays: acetylated fluorogenic peptide from p53 residues 379-382 (RHKAcKAc).
(§2) 50 μl of peptide substrate (see “peptide substrates” section above) and an optimal concentration of the corresponding enzyme (see “enzymes” section above) in the assay buffer at a final DMSO concentration of 1% were incubated in the presence of gradient concentrations of inhibitors (10-dose IC50 mode with 3-fold serial dilution) at 30° C. for 2 hours. The reactions were carried out in a 96-well microplate for fluorometry in a 50 μl reaction volume. After the deacetylation reaction, Fluor-de-Lys-Developer (BioMol Cat. #KI-105) was added to each well to digest the deacetylated substrate, thereby producing the fluorescent signal. The reaction was carried out for 45 minutes at 30° C. with 5% CO2; the fluorescent signal was then measured using an excitation wavelength of 360 nm and an emission wavelength of 460 nm in a microplate-reading fluorometer (GeminiXS, Molecular Devices, Sunnyvale, CA). A curve of deacetylated standard (Biomol, Cat. #KI-142; made from 100 μM with 1:2 dilution and 10 doses, 6 μl) allowed the conversion of the fluorescent signal into micromoles of deacetylated product. All experiments were performed in triplicate. The IC50s were calculated by fitting the experimental data to dose-response curve. DMSO was used as negative control; Trichostatin A (Biomol Cat. #GR-309) was used as positive control inhibitor.
(§3) Enzymatic activity assays were carried out in 11 HDAC enzymes, including HDAC6.

human HDAC11 = molecular target: T2, human HDAC11 (Homo sapiens, UniProt Q96DB2); test: HDAC11 enzymatic activity assay (fluorogenic peptide); type: biochemical; conditions: 10-dose, 3-fold serial dilution, triplicate
T2 construct: GST (N); purchased BioMol SE-560; host or cells: baculovirus expression system
T2 sequence (Q96DB2 1-347): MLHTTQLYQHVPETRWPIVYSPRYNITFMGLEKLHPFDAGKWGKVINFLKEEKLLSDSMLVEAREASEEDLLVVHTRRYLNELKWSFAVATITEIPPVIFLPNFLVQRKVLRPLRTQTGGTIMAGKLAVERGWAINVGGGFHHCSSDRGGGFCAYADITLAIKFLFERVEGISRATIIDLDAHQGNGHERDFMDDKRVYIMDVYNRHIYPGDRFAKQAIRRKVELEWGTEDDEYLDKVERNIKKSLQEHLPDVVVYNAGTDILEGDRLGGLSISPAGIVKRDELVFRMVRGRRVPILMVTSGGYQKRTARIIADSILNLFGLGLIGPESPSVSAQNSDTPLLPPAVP
Method: as §1
50 μl of peptide substrate (see “peptide substrates” section above) and an optimal concentration of the corresponding enzyme (see “enzymes” section above) in the assay buffer at a final DMSO concentration of 1% were incubated in the presence of gradient concentrations of inhibitors (10-dose IC50 mode with 3-fold serial dilution) at 30° C. for 2 hours. The reactions were carried out in a 96-well microplate for fluorometry in a 50 μl reaction volume. After the deacetylation reaction, Fluor-de-Lys-Developer (BioMol Cat. #KI-105) was added to each well to digest the deacetylated substrate, thereby producing the fluorescent signal. The reaction was carried out for 45 minutes at 30° C. with 5% CO2; the fluorescent signal was then measured using an excitation wavelength of 360 nm and an emission wavelength of 460 nm in a microplate-reading fluorometer (GeminiXS, Molecular Devices, Sunnyvale, CA). […]

human HDAC7 = molecular target: T3, human HDAC7 (Homo sapiens, UniProt Q8WUI4); test: HDAC7 enzymatic activity assay (fluorogenic peptide); type: biochemical; conditions: 10-dose, 3-fold serial dilution, triplicate
T3 construct: amino acids 518 end with GST N-terminal tag, MW=78 kDa; GST (N); purchased BioMol, Hamburg, Germany; host or cells: baculovirus expression system
T3 sequence (Q8WUI4 479-952 limits assumed): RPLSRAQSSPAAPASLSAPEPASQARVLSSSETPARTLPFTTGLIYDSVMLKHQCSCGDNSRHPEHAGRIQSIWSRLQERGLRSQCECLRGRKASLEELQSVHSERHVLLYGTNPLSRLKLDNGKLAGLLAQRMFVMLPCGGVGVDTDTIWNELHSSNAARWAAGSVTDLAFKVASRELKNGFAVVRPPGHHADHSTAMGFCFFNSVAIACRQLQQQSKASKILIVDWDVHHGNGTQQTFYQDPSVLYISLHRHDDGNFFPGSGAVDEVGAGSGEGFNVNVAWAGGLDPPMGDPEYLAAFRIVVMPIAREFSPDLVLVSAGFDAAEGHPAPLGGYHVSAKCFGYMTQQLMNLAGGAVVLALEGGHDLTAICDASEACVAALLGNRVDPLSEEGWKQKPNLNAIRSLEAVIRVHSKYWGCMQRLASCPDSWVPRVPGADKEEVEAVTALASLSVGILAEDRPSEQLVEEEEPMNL
Method: as §1, §2, §3

HDAC enzymes = test: Enzymatic activity assays in 11 HDAC enzymes (statements on the panel); type: biochemical, human; conditions: HDAC enzymes other than HDAC6
Method: as §1, §2, §3

Structure (SMILES): C[C@H](CCC(=O)NCC(=O)NCc1ccc(C(=O)NO)cc1)[C@H]1CC[C@H]2[C@@H]3[C@@H](O)C[C@@H]4C[C@H](O)CC[C@]4(C)[C@H]3CC[C@]12C [Ib, 4-((2-((R)-4 ((3R,5S,7S,8R,9S,10S,13R,14S,17R)-3,7-dihydroxy-10,13-dimethylhexadecahydro-1H-cyclopenta[a]phenanthren-17-yl)pentanamide)acetamido)methyl)-N-hydroxybenzamide]
- selectivity and inhibitory capacity with respect to HDAC6 enzyme (human HDAC6): nanomolar range
- IC50 (human HDAC6): 56.1 nM
- IC50 (human HDAC11): 2560 nM
- IC50 (human HDAC7): 17600 nM
- inhibitory capacity with respect to the rest of the HDAC enzymes (HDAC enzymes): micromolar range

Structure (SMILES): C[C@H](CCC(=O)NCc1ccc(C(=O)NO)cc1)[C@H]1CC[C@H]2[C@@H]3[C@@H](O)C[C@@H]4C[C@H](O)CC[C@]4(C)[C@H]3CC[C@]12C [Compound Ia]
- selectivity and inhibitory capacity with respect to HDAC6 enzyme (human HDAC6): nanomolar range
- IC50 (human HDAC6): 58 nM
- HDAC6 selectivity proportion (human HDAC6; matches IC50 HDAC1 / IC50 HDAC6): 174
- IC50 (human HDAC11): 2330 nM
- IC50 (human HDAC7): 7470 nM
- inhibitory capacity with respect to the rest of the HDAC enzymes (HDAC enzymes): micromolar range
